ChEMBL document CHEMBL4665693, “Amentotaxins C-V, Structurally Diverse Diterpenoids from the Leaves and Twigs of the Vulnerable Conifer Amentotaxus argotaenia and Their Cytotoxic Effects” (J Nat Prod, 2020)

Experiments:
Format in all cases: functional, cell-based
HeLa = test: Cytotoxicity against human HeLa cells assessed as reduction in cell viability incubated for 48 hrs by MTT assay
A549 = test: Cytotoxicity against human A549 cells assessed as reduction in cell viability incubated for 48 hrs by MTT assay; conditions: A549, 48 h
HCT-116 = test: Cytotoxicity against human HCT-116 cells assessed as reduction in cell viability incubated for 48 hrs by MTT assay; conditions: HCT-116, 48 h
SK-OV-3 = test: Cytotoxicity against human SK-OV-3 cells assessed as reduction in cell viability incubated for 48 hrs by MTT assay; conditions: SK-OV-3, 48 h
MDA-MB-231 = test: Cytotoxicity against human MDA-MB-231 cells assessed as reduction in cell viability incubated for 48 hrs by MTT assay; conditions: MDA-MB-231, 48 h
Huh-7 = test: Cytotoxicity against human Huh-7 cells assessed as reduction in cell viability incubated for 48 hrs by MTT assay; conditions: Huh-7, 48 h

SMILES	IC50 (HeLa)	IC50 (A549)	IC50 (HCT-116)	IC50 (SK-OV-3)	IC50 (MDA-MB-231)	IC50 (Huh-7)
C=C1[C@H](O)C[C@@H]2[C@@](C)(CO)CCC[C@@]2(C)[C@@H]1C/C=C(\C)C=O	> 10 µM	> 10 µM	> 10 µM	> 10 µM	1.5 µM	> 10 µM
C=C1C(=O)[C@]23CC[C@H]4[C@@](C)(CC[C@@H](O)[C@@]45CO5)[C@@H]2CC[C@H]1C3	5.1 µM	9.8 µM	1.9 µM	2.9 µM	6.8 µM	4.1 µM
C=C1[C@H](O)C[C@@H]2[C@@](C)(CO)CCC[C@@]2(C)[C@@H]1C[C@H]1OC(=O)C=C1C	> 10 µM	> 10 µM	> 10 µM	> 10 µM	1.6 µM	> 10 µM
C=C1C(=O)[C@]23CC[C@@H]4[C@@](C)(CO)CCC[C@@]4(C)[C@@H]2CC[C@H]1C3	> 10 µM	8.1 µM	2.9 µM	6.9 µM	10 µM	9.7 µM
CC(C)c1cc2c(cc1O)[C@@]1(C)CC[C@H](O)C(C)(C)[C@@H]1CC2=O	> 10 µM	> 10 µM	> 10 µM	> 10 µM	1.6 µM	> 10 µM
C=C1C[C@@]23C[C@@H]1CC[C@H]2[C@]1(C)CCC[C@@](C)(C(=O)O)[C@H]1[C@@H](O)[C@@H]3O	> 10 µM	> 10 µM	> 10 µM	> 10 µM	> 10 µM	> 10 µM
C=C1[C@H](O)C[C@@H]2[C@@](C)(CO)CCC[C@@]2(C)[C@@H]1/C=C/C(C)=O	> 10 µM	> 10 µM	> 10 µM	> 10 µM	3 µM	> 10 µM
CC(=O)O[C@H]1C(=O)[C@@]2(C)[C@H]([C@H](OC(=O)c3ccccc3)[C@]3(O)C[C@H](OC(=O)[C@H](O)[C@@H](NC(=O)c4ccccc4)c4ccccc4)C(C)=C1C3(C)C)[C@]1(OC(C)=O)CO[C@@H]1C[C@@H]2O [PACLITAXEL]	0.004 µM					0.005 µM
